Experimental data published in BindingDB's records for patent US20240140962 (Medshine Discovery, 2024).

Target: Serine/threonine-protein kinase PLK1 (Homo sapiens, UniProt P53350)
Experiment: Evaluation of PLK1 Kinase Activity In Vitro
Protocol: The 33P isotope-labeled kinase activity assay (Reaction Biology Corp) was used to determine the IC50 value to evaluate the inhibitory ability of the test compound to human PLK1 protein kinase.Buffer conditions: 20 mM HEPES (pH 7.5), 10 mM MgCl2, 1 mM EGTA, 0.01% Brij35, 0.02 mg/ml BSA, 0.1 mM Na3VO4, 2 mM DTT, 1% DMSOTest steps: At room temperature, the compounds to be tested were dissolved in DMSO to prepare a 10 mM solution for use. The substrate Casein was dissolved in a freshly prepared buffer (with a final concentration of 20 μM), and the tested PLK1 kinase (with a final concentration of 12 nM) was added thereto and mixed well. The acoustic wave pipetting system Echo 550 was used to add the mother solution of the test compound dissolved in DMSO to the above mixed reaction mixture according to the set final concentration gradient (the highest final concentration was 1 μM, 3-fold dilution, 10 gradients). After incubation at room temperature for 20 minutes, 33P-ATP (30 μM) was added, and after incubation at room temperature for 120 minutes, the reaction mixture was spotted on P81 ion exchange filter paper (Whatman #3698-915). After the filter paper was repeatedly washed with 0.75% phosphoric acid solution, the radioactivity of the phosphorylated substrate remaining on the filter paper was measured.

Sequence of Serine/threonine-protein kinase PLK1 (P53350 whole entry): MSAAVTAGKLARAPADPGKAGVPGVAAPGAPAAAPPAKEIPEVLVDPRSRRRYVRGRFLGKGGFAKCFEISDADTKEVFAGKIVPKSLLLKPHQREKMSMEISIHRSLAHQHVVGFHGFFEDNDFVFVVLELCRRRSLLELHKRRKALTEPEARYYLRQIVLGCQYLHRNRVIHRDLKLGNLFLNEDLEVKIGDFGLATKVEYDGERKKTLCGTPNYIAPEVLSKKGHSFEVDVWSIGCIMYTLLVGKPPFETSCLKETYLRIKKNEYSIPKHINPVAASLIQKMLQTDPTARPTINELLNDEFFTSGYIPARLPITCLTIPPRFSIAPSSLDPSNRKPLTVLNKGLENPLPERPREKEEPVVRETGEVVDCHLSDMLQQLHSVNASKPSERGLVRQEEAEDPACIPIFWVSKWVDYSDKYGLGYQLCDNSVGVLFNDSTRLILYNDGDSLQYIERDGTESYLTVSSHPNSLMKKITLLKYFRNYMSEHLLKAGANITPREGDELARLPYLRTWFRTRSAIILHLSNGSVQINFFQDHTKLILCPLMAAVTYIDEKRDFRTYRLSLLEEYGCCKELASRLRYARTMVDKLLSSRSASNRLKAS

Row | Compound | IC50
1 | CCOc1sc(C(N)=O)c2c1-c1nc(Nc3cc(N4CCN(C)CC4)ccc3OC(F)(F)F)ncc1CC2 [US20240140962, Compound 2] | 4.2 nM
2 | CSc1sc(C(N)=O)c2c1-c1nc(Nc3cc(N4CCN(CCO)CC4)ccc3OC(F)(F)F)ncc1CC2 [US20240140962, Compound 8] | 1.7 nM
3 | CSc1sc(C(N)=O)c2c1-c1nc(Nc3cc(N4CCNCC4)ccc3OC(F)(F)F)ncc1CC2 [US20240140962, Compound 7] | 3 nM
4 | CSc1sc(C(N)=O)c2c1-c1nc(Nc3cc(N4CCN(C)CC4)ccc3OC(F)(F)F)ncc1CC2 [US20240140962, Compound 1] | 4.4 nM

Now from value to compound:

Row | IC50 | Compound
5 | 5.9 nM | COc1nnc(N2CCN(C)CC2)cc1Nc1ncc2c(n1)-c1c(SC)sc(C(N)=O)c1CC2 [US20240140962, Compound 17]
6 | 4 nM | CN1CCN(c2ccc(OC(F)(F)F)c(Nc3ncc4c(n3)-c3csc(C(N)=O)c3CC4)c2)CC1 [US20240140962, Compound 12]
7 | 2.8 nM | CN1CCN(c2ccc(OC(F)(F)F)c(Nc3ncc4c(n3)-c3c(-c5ccco5)sc(C(N)=O)c3CC4)c2)CC1 [US20240140962, Compound 20]
8 | 5.3 nM | CN1CCN(c2ccc(OC(F)(F)F)c(Nc3ncc4c(n3)-c3c(C5CC5)sc(C(N)=O)c3CC4)c2)CC1 [US20240140962, Compound 16]
